Substitutions are numbered along the chain they refer to. Names may count otherwise. Converted amounts (≈) assume the structure as drawn. Where no end group is shown, it is not given here.
B1: aureocin A53 (L-AucA, wild type) (natural protein)
chain: MSWLNFLKYIAKYGKKAVSAAWKYKGKVLEWLNVGPTLEWVWQKLKKIAGL
notes: also called AucA-wt; wild-type AucA; source: synthetic: native chemical ligation of two peptide segments and desulfurization, purified by semi-preparative HPLC
B2: AucA-W22L (natural protein)
chain: B1 chain with W22L
notes: also called W22L variant; source: synthetic: automated SPPS on rink amide protide resin

What was measured:
[1] = tested on: E. faecalis CW133346; assay: microbe, parasite or virus in culture; details: for Minimum inhibitory concentration E. faecalis CW133346: broth microdilution per CSLI guidelines, Brain Heart Infusion broth, 5 × 10^5 CFU/mL, 37 °C, 20 h, range 64–0.125 µg/mL, triplicate
Experimental: (§1) Minimum Inhibitory Concentrations (MIC) were determined for each of the bacteriocins and controls using a broth microdilution method, as per CSLI guidelines for microbial susceptibility testing. The peptides were dissolved in sterile deionized water to prepare the working stocks, with concentrations determined by UV absorbance at 280 nm[56]. Overnight cultures from the strains of interest were incubated with shaking overnight at 37 °C. Cation-adjusted Mueller Hinton Broth 2 (MHB 2) was used for the S. aureus, and S. epidermidis strains and Brain Heart Infusion (BHI) broth was utilized for the E. faecalis and E. faecium strains. The cultures were prepared and diluted to the turbidity of a 0.5 McFarland standard using MHB or BHI fresh media. Increasing concentrations of the leaderless bacteriocins were added to a 96-well polypropylene plate. The range tested for each bacteriocin was 64–0.125 µg/mL. The bacterial culture was further diluted and mixed in a 1:1 ratio with the bacteriocin solution to yield a final concentration in the wells of 5 × 10^5 CFU/mL. […] A 1:1000 dilution of the growth control was prepared in the respective media and plated onto agar (100 μL) to ensure the correct inoculum concentration (5 × 10^5 CFU/mL indicated by ≈ 50 bacterial colonies). The 96-well and agar plates were incubated at 37 °C, and growth was assessed by the formation of a pellet observable with the naked eye after 20 h. […] Each assay was performed in triplicate.
(§2) Materials and instruments […]
(§3) Minimum Inhibitory Concentration (MIC) assays were conducted in 96-Well Clear polypropylene corner notch microplates (Corning, #11313595). For the assay media, cation adjusted Mueller Hinton Broth 2 (Sigma Aldrich, #90922) was used for the S. aureus, and S. epidermidis strains and Brain Heart Infusion broth (BD, #221812) was used for the E. faecalis and E. faecium […]
(§4) used, as well as melittin prepared by automated SPPS. Experimental bacterial strains used were procured from the American Type Culture collection (S. aureus 29213) and the Canadian Antimicrobial Resistance Alliance

[2] = tested on: E. faecium CW130826; assay: microbe, parasite or virus in culture; details: for Minimum inhibitory concentration E. faecium CW130826: broth microdilution per CSLI guidelines, Brain Heart Infusion broth, 5 × 10^5 CFU/mL, 37 °C, 20 h, range 64–0.125 µg/mL, triplicate
Experimental: as §1, §2, §3, §4

[3] = tested on: S. epidermidis CW130500; assay: microbe, parasite or virus in culture; details: for Minimum inhibitory concentration S. epidermidis CW130500: broth microdilution per CSLI guidelines, cation-adjusted Mueller Hinton Broth 2, 5 × 10^5 CFU/mL, 37 °C, 20 h, range 64–0.125 µg/mL, triplicate
Experimental: as §1, §2, §3, §4

[4] = tested on: E. faecium CW131126; assay: microbe, parasite or virus in culture; details: for Minimum inhibitory concentration E. faecium CW131126: broth microdilution per CSLI guidelines, Brain Heart Infusion broth, 5 × 10^5 CFU/mL, 37 °C, 20 h, range 64–0.125 µg/mL, triplicate
Experimental: as §1, §2, §3, §4

[5] = tested on: E. faecalis CW133003; assay: microbe, parasite or virus in culture; details: for Minimum inhibitory concentration E. faecalis CW133003: broth microdilution per CSLI guidelines, Brain Heart Infusion broth, 5 × 10^5 CFU/mL, 37 °C, 20 h, range 64–0.125 µg/mL, average of three repeat assays
Experimental: (§5) Minimum inhibitory concentrations, determined by broth microdilution, are expressed as an average of three repeat assays. […] [a] MIC values expressed in μg/mL, [b] AC: American Type Culture Collection strain, [c] CW: CANWARD collection clinical isolate strain.33.
as §1, §2
(§6) Minimum Inhibitory Concentration (MIC)
(§7) assays were conducted in 96-Well Clear polypropylene corner notch microplates (Corning, #11313595). For the […]

[6] = tested on: S. epidermidis CW131612; assay: microbe, parasite or virus in culture; details: for Minimum inhibitory concentration S. epidermidis CW131612: broth microdilution per CSLI guidelines, cation-adjusted Mueller Hinton Broth 2, 5 × 10^5 CFU/mL, 37 °C, 20 h, range 64–0.125 µg/mL, average of three repeat assays
Experimental: as §5, §1, §2, §6, §7

[7] = tested on: S. aureus CW114125; assay: microbe, parasite or virus in culture; details: for Minimum inhibitory concentration S. aureus CW114125: broth microdilution per CSLI guidelines, cation-adjusted Mueller Hinton Broth 2, 5 × 10^5 CFU/mL, 37 °C, 20 h, range 64–0.125 µg/mL, average of three repeat assays
Experimental: as §5, §1, §2, §6, §7

[8] = tested on: S. aureus CW115852; assay: microbe, parasite or virus in culture; details: for Minimum inhibitory concentration S. aureus CW115852: broth microdilution per CSLI guidelines, cation-adjusted Mueller Hinton Broth 2, 5 × 10^5 CFU/mL, 37 °C, 20 h, range 64–0.125 µg/mL, average of three repeat assays
Experimental: as §5, §1, §2, §6, §7

[9] = tested on: S. aureus CW113379; assay: microbe, parasite or virus in culture; details: for Minimum inhibitory concentration S. aureus CW113379: broth microdilution per CSLI guidelines, cation-adjusted Mueller Hinton Broth 2, 5 × 10^5 CFU/mL, 37 °C, 20 h, range 64–0.125 µg/mL, average of three repeat assays
Experimental: as §5, §1, §2, §6, §7

[10] = tested on: S. aureus AC29213; assay: microbe, parasite or virus in culture; details: for Minimum inhibitory concentration S. aureus AC29213: broth microdilution per CSLI guidelines, cation-adjusted Mueller Hinton Broth 2, 5 × 10^5 CFU/mL, 37 °C, 20 h, range 64–0.125 µg/mL, average of three repeat assays
Experimental: as §5, §1, §2, §6, §7

[11] = molecular target: the molecule itself; assay: SEC; analytical size exclusion chromatography in phosphate-buffered saline (pH 7.4), UV 210 nm

Molecule	Minimum inhibitory concentration E. faecalis CW133346 [1]	Minimum inhibitory concentration E. faecium CW130826 [2]	Minimum inhibitory concentration S. epidermidis CW130500 [3]	Minimum inhibitory concentration E. faecium CW131126 [4]	Minimum inhibitory concentration E. faecalis CW133003 [5]	Minimum inhibitory concentration S. epidermidis CW131612 [6]	Minimum inhibitory concentration S. aureus CW114125 [7]	Minimum inhibitory concentration S. aureus CW115852 [8]	Minimum inhibitory concentration S. aureus CW113379 [9]	Minimum inhibitory concentration S. aureus AC29213 [10]	other results
MSWLNFLKYIAKYGKKAVSAALKYKGKVLEWLNVGPTLEWVWQKLKKIAGL-NH2 [L-W22L, L-aureocin A53 W22L (Met^1-Leu^51)]	4 µg/mL	2 µg/mL	8 µg/mL	4 µg/mL	16 µg/mL	4 µg/mL	8 µg/mL	16 µg/mL	16 µg/mL	2 µg/mL	
MAGFLKVVQLLAKYGSKAVQLAWANKGKILDWLNAGQAIDWVVSKIKQILGIK-NH2 [L-W21L, L-lacticin Q W21L (Met^1-Lys^53)]	4 µg/mL	4 µg/mL	16 µg/mL	4 µg/mL	8 µg/mL	16 µg/mL	32 µg/mL	32 µg/mL	16 µg/mL	16 µg/mL	
MAGFLKVVQLLAKYGSKAVQWAWANKGKILDLLNAGQAIDWVVSKIKQILGIK-NH2 (C-terminus assumed) [L-W32L, L-lacticin Q W32L (Met^1-Lys^53)]	4 µg/mL	2 µg/mL	16 µg/mL	4 µg/mL	4 µg/mL	16 µg/mL	64 µg/mL	32 µg/mL	32 µg/mL	64 µg/mL	
MAGFLKVVQLLAKYGSKAVQWAWANKGKILDWLNAGQAIDWVVSKIKQILGIK-NH2 [L-LnqQ, L-lacticin Q (Met^1-Lys^53)]	4 µg/mL	2 µg/mL	16 µg/mL	2 µg/mL	2 µg/mL	8 µg/mL	32 µg/mL	64 µg/mL	32 µg/mL	16 µg/mL	
CN(C)[C@@H]1C(O)=C(C(N)=O)C(=O)[C@@]2(O)C(O)=C3C(=O)c4c(O)cccc4[C@@](C)(O)[C@H]3C[C@@H]12 [Tetracycline, tetracycline, reference compound]											MIC ([1]; Enterococcus faecalis, CW133346, 20 h, read-out: Minimum inhibitory concentration E. faecalis CW133346): 64 µg/mL (≈ 144 µM); MIC ([2]; Enterococcus faecium, CW130826, 20 h, read-out: Minimum inhibitory concentration E. faecium CW130826): 0.25 µg/mL (≈ 0.563 µM); MIC ([3]; Staphylococcus epidermidis, CW130500, 20 h, read-out: Minimum inhibitory concentration S. epidermidis CW130500): < 0.125 µg/mL; MIC ([4]; Enterococcus faecium, CW131126, 20 h, read-out: Minimum inhibitory concentration E. faecium CW131126): > 64 µg/mL; MIC ([5]; Enterococcus faecalis, CW133003, 20 h, read-out: Minimum inhibitory concentration E. faecalis CW133003): 1 µg/mL (≈ 2.25 µM); MIC ([6]; Staphylococcus epidermidis, CW131612, 20 h, read-out: Minimum inhibitory concentration S. epidermidis CW131612): 1 µg/mL (≈ 2.25 µM); MIC ([7]; Staphylococcus aureus, CW114125, 20 h, read-out: Minimum inhibitory concentration S. aureus CW114125): 32 µg/mL (≈ 72 µM); MIC ([8]; Staphylococcus aureus, CW115852, 20 h, read-out: Minimum inhibitory concentration S. aureus CW115852): 8 µg/mL (≈ 18 µM); MIC ([9]; Staphylococcus aureus, CW113379, 20 h, read-out: Minimum inhibitory concentration S. aureus CW113379): 16 µg/mL (≈ 36 µM); MIC ([10]; Staphylococcus aureus, AC29213, 20 h, read-out: Minimum inhibitory concentration S. aureus AC29213): < 0.125 µg/mL
MSLLNFLKYIAKYGKKAVSAAWKYKGKVLEWLNVGPTLEWVWQKLKKIAGL-NH2 [L-W3L, L-aureocin A53 W3L (Met^1-Leu^51)]	4 µg/mL	2 µg/mL	4 µg/mL	4 µg/mL	16 µg/mL	4 µg/mL	4 µg/mL	32 µg/mL	4 µg/mL	4 µg/mL	
B1											stoichiometry N [11]: 2
B2											binding result [11]: binds

From article PMC10354048 (Communications Chemistry, 2023)
